{"source": "patent US8476036B2", "about": "“Nonluminogenic assay for living cells” (Promega Corporation, priority 2004, dated 2013)", "type_in_all_cases": "cell-based", "key": {"HL-60 or Jurkat [1]": {"test_system": "HL-60 or Jurkat", "experiment": "Protease retention substrate selectivity, untreated viable cells", "parameters": "key: None denotes no statistical activity above control population.; (+) to (+++++) denotes the range of activity above control population from modest to robust; (+) to (+++++) denotes the range of activity above control population from modest to robust; (+) to (+++++) denotes the range of activity above control population from modest to robust; (+) to (+++++) denotes the range of activity above control population from modest to robust; (+) to (+++++) denotes the range of activity above control population from modest to robust", "settings": "substrate cleavage activity above control in untreated viable cells; 15-30 minutes at 37° C.", "from_the_text": "(§1) Ala-Ala-Phe-AMC was obtained from Promega. Z-Leu-Leu-Val-Tyr-aminoluciferin (LLVY corresponds to SEQ ID NO:18), Z-Leu-Arg-aminoluciferin, Z-Phe-Arg-aminoluciferin, Ala-Ala-Phe-aminoluciferin, (Ala-Ala-Phe)2-R110, and (Gly-Phe)2-R110 were synthesized by Promega Biosciences. Suc-Ala-Ala-Phe-AMC, H-Phe-AMC, H-Tyr-AMC, Glutyl-Ala-Ala-Phe-AMC (EMF corresponds to SEQ ID NO:32), H-Gly-Phe-AMC, Z-Gly-Ala-Met-AMC, Suc-Leu-Leu-Val-Tyr-AMC (LLVY corresponds to SEQ ID NO:18), D-Ala-Leu-Lys-AMC, H-Gly-Ala-AMC, H-Gly-Gly-AMC, Suc-Ala-Ala-Phe-AMC, Z-Arg-Leu-Arg-Gly-Gly-AMC (RLRGG corresponds to SEQ ID NO:29), Z-Leu-Arg-Gly-Gly-AMC (LRGG corresponds to SEQ ID NO:30) and Ac-Ala-Ala-Tyr-AMC were sourced from Bachem. Gly-Phe-AFC, Pro-Phe-Arg-AMC, Gly-Gly-Leu-AMC, and Ser-Tyr-AFC were obtained from Calbiochem. Z-Phe-Arg-AMC and Suc-Arg-Pro-Phe-His-Leu-Leu-Val-Tyr-AMC (RPHLLVY corresponds to SEQ ID NO:31) were purchased from Sigma.\n(§2) All substrates were solubilized in DMSO from 10 to 100 mM depending upon inherent solubility. Fluorescent substrates were diluted to 100 μM to 1 mM in 10 mM Hepes, pH 7.5 or matched cell culture medium with 10% serum and added in 1/10th volumes to lysed (freeze fractured, sonicated, or detergent) or untreated viable cells in white-walled, clear bottomed 96-well plates. HL-60 or Jurkat were used in the experimentation interchangeably because of their easily manipulated suspension phenotype. Plates were incubated for 15-30 minutes at 37° C. prior to measuring fluorescence by the CYTOFLUOR® II.\n(§3) Luminescent substrates were added to a luciferin detection cake (Promega V859A) resuspended in 2 ml 10 mM Hepes, pH 7.5 to 500 μM. ⅕^th volume of the proluminescent reaction mixes were added to lysed (freeze fractured, sonicated, or detergent) or untreated viable cells in white-walled, clear bottomed 96-well plates. Again, HL-60 or Jurkat were used in the experimentation interchangeably. Plates were incubated at 37° C. in a MeCour' circulating heat block controlled by a Caron 2050W exchange unit. Luminescence was measured between 15 and 30 minutes (signal steady state).\n(§4) A broad variety of proteolytic substrates were examined in an effort to characterize potential substrate preferences for protease release or retention in compromised or viable cells (see Table 4). […] Non-blocked substrates (H- and the like) were examined to include the contribution of aminopeptidase activities. From this panel, at least three proteolytic profiles emerged: an aminopeptidase-like activity preferring unblocked Ala-Ala-Phe tripeptide, a proteosomal (chymotrypsin-like) activity measured by release of blocked Leu-Leu-Val-Tyr (SEQ ID NO:18) peptides, and an exceedingly labile activity by Gly-Phe, Gly-Ala, Phe-, Tyr- or Gly-Gly-Leu substrates. The latter activities were only measurable in viable, intact cells. Of further significance is that several fluorophores or proluminescent labels can be used to detect these activities, ultimately allowing for enhanced downstream multiplexing flexibility."}, "HL-60 or Jurkat [2]": {"test_system": "HL-60 or Jurkat", "experiment": "Protease release substrate selectivity, lysed (freeze fractured, sonicated, or detergent) cells", "parameters": "key: None denotes no statistical activity above control population.; (+) to (+++++) denotes the range of activity above control population from modest to robust; (+) to (+++++) denotes the range of activity above control population from modest to robust; (+) to (+++++) denotes the range of activity above control population from modest to robust; (+) to (+++++) denotes the range of activity above control population from modest to robust; (+) to (+++++) denotes the range of activity above control population from modest to robust", "settings": "substrate cleavage activity above control in lysed cells; 15-30 minutes at 37° C.", "from_the_text": "as §1, §2, §3, §4"}, "Jurkat cells": {"test_system": "Jurkat cells", "experiment": "Protease retention assay formats with different peptide sequences and reporters", "settings": "viable versus lysed cells", "procedure": "Actively doubling Jurkat cells were serially diluted from 37,500 cells/well in RPMI 1640+10% FBS in a white-walled, clear bottomed 96 well plate in 100 μl volumes. The cells in half of the plate were lysed with the addition of Triton X to 0.2% final. The other half of the plate wells received a matched volume (5 μl) of water vehicle. Tyr-AMC, Phe-AMC and Gly-Phe-AFC were all rehydrated in DMSO to 100 mM then diluted in RPMI 1640 to 1 mM. 1/10th volume of diluted substrates were added to the wells, mixed briefly by orbital shaking then incubated at 37° C. in 5% CO2 for up to 1.5 hours. Resulting fluorescence was measured at Ex. 360 Em. 460 and Ex. 405 and Em. 500 at 30 and 90 minutes."}, "HL-60 cells": {"test_system": "HL-60 cells", "experiment": "Luminescent protease release assay with different enzyme targets", "settings": "HL-60 with or without sonication, 15 minutes at 37° C.", "procedure": "Actively doubling HL-60 cells were adjusted to 100,000 cells/ml and split into two aliquots. One aliquot was sonicated using a microtip MISONIXTM™ 3000 with 30% power for three 5 second pulses. The other aliquot was held at 37° C. The cell suspension and lysates were then two-fold serially diluted in RPMI 1640 +10% FBS in 100 μl volumes. Medium only served as the no cell control. A luciferin detection reagent cake (Promega V859A) was resuspended with 2.0 ml of 10 mM Hepes, pH 7.5. The luciferin detection reagent was then divided and made 1 mM with either Z-Leu-Leu-Val-Tyr-aminoluciferin (LLVY corresponds to SEQ ID NO:18) or Ala-Ala-Phe-aminoluciferin. Each reagent was added to independent replicates of the plate in 1/10th volumes and allowed to incubate for 15 minutes at 37° C. in the Me'Cour thermal jacketed water bath holder before luminescence measurement using the BMG FLUOstar Optima."}, "SK-MEL-28 cells": {"test_system": "SK-MEL-28 cells", "experiment": "Live cell protease retention multiplexed with caspase 3/7 activity, SK-MEL-28", "settings": "SK-MEL-28, serial dilutions, 5 hours", "procedure": "(§5) SK-MEL-28 or ACHN cells were seeded into white-walled, clear bottomed 96 well plates at a density of 10,000 cells per well in 100 μl volumes and allowed to attach at 37° C. in 5% CO2 for a period of 2 hours. After attachment, 50 μl of medium was carefully removed and replaced with serial dilutions of either ionomycin or staurosporine in MEM+10% FBS. Medium only served as control. The plate was incubated for an additional 5 hours. A 1 mM solution of Gly-Phe-AFC was made in MEM and added to the wells in a 1/10th volume. Resulting fluorescence was measured using a CYTOFLUOR® II. Caspase-GIo™ 3/7 reagent was then added and luminescence measure using a BMG FLUOstar Optima."}, "ACHN cells": {"test_system": "ACHN cells", "experiment": "Live cell protease retention multiplexed with caspase 3/7 activity, ACHN", "settings": "serial dilutions, 5 hours", "procedure": "as §5"}}, "note": "Peptide text beside a SMILES is read from it. * marks the point of attachment. X1 = O=C(O)C1CSC(c2nc3ccc(N*)cc3s2)=N1; Cbz = O=C(OCc1ccccc1)*"}
{"smiles": "NCC(=O)N[C@@H](Cc1ccccc1)C(=O)Nc1ccc2c(c1)Oc1cc(NC(=O)[C@H](Cc3ccccc3)NC(=O)CN)ccc1C21OC(=O)c2ccccc21", "note": "[(Gly-Phe)2 R110, (Gly-Phe)2-R110]", "values": [{"measurement": "Retention", "setting": "HL-60 or Jurkat [1]", "value": "None"}, {"measurement": "Release", "setting": "HL-60 or Jurkat [2]", "value": "None"}, {"measurement": "Suitability as live cell protease retention substrate", "setting": "Jurkat cells", "value": "apparently unable to effectively traverse the cell membrane or was not effectively cleaved by the candidate protease"}]}
{"smiles": "CC(C)CC(NC(=O)OCc1ccccc1)C(=O)NC(CC(C)C)C(=O)NC(C(=O)NC(Cc1ccc(O)cc1)C(=O)Nc1ccc2nc(C3=NC(C(=O)O)CS3)sc2c1)C(C)C", "note": "(stereo not drawn) [Z-Leu-Leu-Val-Tyr-Aluc, Z-Leu-Leu-Val-Tyr-aminoluciferin] (Cbz-LLVY-X1; configuration not given here)", "values": [{"measurement": "Retention", "setting": "HL-60 or Jurkat [1]", "value": "None"}, {"measurement": "Release", "setting": "HL-60 or Jurkat [2]", "value": "++"}, {"measurement": "Performance as protease release substrate", "setting": "HL-60 cells", "value": "performed less optimally than the AAF-aminoluciferin sequence"}]}
{"smiles": "CN[C@@H]1C[C@H]2O[C@@](C)([C@@H]1OC)n1c3ccccc3c3c4c(c5c6ccccc6n2c5c31)C(=O)NC4", "note": "[staurosporine]", "values": [{"measurement": "Cytotoxicity profile (live cell fluorescence and caspase 3/7 activity)", "setting": "SK-MEL-28 cells", "value": "caspase activation (and therefore apoptosis induction) is evident"}, {"measurement": "Cytotoxicity profile (live cell fluorescence and caspase 3/7 activity)", "setting": "ACHN cells", "value": "apoptotic profile"}]}
